Data from US6989138B2, “Stabilization of radiopharmaceutical compositions using hydrophilic thioethers and hydrophilic 6-hydroxy chromans” (Diatide, Inc., priority 2000, dated 2006).

Assay: Radiochemical purity (RCP) of 99mTc-depreotide kits with gentisic acid, reversed phase HPLC
Assay type: physicochemical
Conditions: when included in formulated kits
Procedure: Lyophilized kit vials were prepared containing depreotide, GA, and other components as described in Table 1. Formulations were adjusted to pH 7.4 or 8.5 (as noted) prior to lyophilization.

For `O=C(O)c1cc(O)ccc1O` [gentisic acid, Gentisic acid], the “effect on radiolabelling yield and stability of 99mTc-depreotide” value was “decreases the radiolabelling yield and the stability”.
